These are literature values, as cited in publication PMC2839367 (The Science of the total environment, 2010).

Data set [1] concerns S. cerevisiae BLYES estrogen sensitive strain. The conditions noted are these: ref Sanseverino et al (2005).
In another data set the target is human estrogen receptor. The conditions noted are these: ref Folmar et al (2002).

A word on the EC50: it is the midpoint of the concentration-response curve. In the case of nonylphenol, the EC50 in data set [1] was 17 µM; on human estrogen receptor, 290 µM.
